Measurements: patent US9790217B2, “Pyridinyloxy- and phenyloxy-pyrazolyl compounds” (Hoffmann-La Roche Inc., priority 2014, dated 2017)

Assays:
human CYP11B2 = human CYP11B2 (Homo sapiens (Human), UniProt P19099); experiment: G-402 cellular enzyme assay, human CYP11B2 (aldosterone release, HTRF); assay type: cell-based; conditions: G-402 cells expressing human CYP11B2; 1 μM Deoxycorticosterone
Source text: (§1) Herein we identified the use of the G-402 cell line as a host cell to ectopically express (transiently or stably) enzymes of the CYP11 family. Specifically we developed stable G-402 cells expressing ectopically human CYP11B1, human CYP11B2, human CYP11A1, cynmolgus CYP11B1 or cynomolgus CYP11B2 enzyme activity. Importantly the identified cell line G-402 expresses co-factors (adrenodoxin and adrenodoxin reductase) important for the activity of the CYP11 family and no relevant enzyme activity of the CYP11 family (in comparison to H295R cells) was detected in these cells. Therefore the G-402 cell line is uniquely suited as a host cell for the ectopic expression of enzymes from the CYP11 family.
(§2) G-402 cells can be obtained from ATCC (CRL-1440) and were originally derived from a renal leiomyoblastoma.
(§3) The expression plasmids contains the ORF for either human/cyno CYP11B1 or CYP11B2 under the control of a suitable promoter (CMV-promoter) and a suitable resistance marker (neomycin). Using standard techniques the expression plasmid is transfected into G-402 cells and these cells are then selected for expressing the given resistance markers. Individual cell-clones are then selected and assessed for displaying the desired enzymatic activity using 11-Deoxycorticosterone (Cyp11B2) or 11-Deoxycortisol (Cyp11B1) as a substrate.
(§4) G-402 cells expressing CYP11 constructs were established as described above and maintained in McCoy's 5a Medium Modified, ATCC Catalog No. 30-2007 containing 10% FCS and 400 μg/ml G418 (Geneticin) at 37° C. under an atmosphere of 5% CO2/95% air. Cellular enzyme assays were performed in DMEM/F12 medium containing 2.5% charcoal treated FCS and appropriate concentration of substrate (0.3-10 uM 11-Deoxycorticosterone, 11-Deoxycortisol or Corticosterone). For assaying enzymatic activity, cells were plated onto 96 well plates and incubated for 16 h. An aliquot of the supernatant is then transferred and analyzed for the concentration of the expected product (Aldosterone for CYP11B2; Cortisol for CYP11B1). The concentrations of these steroids can be determined using HTRF assays from CisBio analyzing either Aldosterone or Cortisol.
(§5) Inhibition of the release of produced steroids can be used as a measure of the respective enzyme inhibition by test compounds added during the cellular enzyme assay. The dose dependent inhibition of enzymatic activity by a compound is calculated by means of plotting added inhibitor concentrations (x-axes) vs. measured steroid/product level (y-axes). The inhibition is then calculated by fitting the following 4-parameter sigmoidal function (Morgan-Mercer-Flodin (MMF) model) to the raw data points using the least squares method:
(§6) [formula] wherein, A is the maximum y value, B is the EC50 factor determined using XLFit, C is the minimum y value and D is the slope value.
(§7) EC50 values for compounds claimed herein were tested with the G402-based assay system described. Cyp11B2 enzyme activity was tested in presence of 1 μM Deoxycorticosterone and variable amounts of inhibitors; Cyp11B1 enzyme activity was tested in presence of 1 μM Deoxycortisol and variable amounts of inhibitors.

human CYP11B1 = human CYP11B1 (Homo sapiens (Human), UniProt P15538); experiment: G-402 cellular enzyme assay, human CYP11B1 (cortisol release, HTRF); assay type: cell-based; conditions: G-402 cells expressing human CYP11B1; 1 μM Deoxycortisol
human CYP11B1, sequence (P15538 25-503): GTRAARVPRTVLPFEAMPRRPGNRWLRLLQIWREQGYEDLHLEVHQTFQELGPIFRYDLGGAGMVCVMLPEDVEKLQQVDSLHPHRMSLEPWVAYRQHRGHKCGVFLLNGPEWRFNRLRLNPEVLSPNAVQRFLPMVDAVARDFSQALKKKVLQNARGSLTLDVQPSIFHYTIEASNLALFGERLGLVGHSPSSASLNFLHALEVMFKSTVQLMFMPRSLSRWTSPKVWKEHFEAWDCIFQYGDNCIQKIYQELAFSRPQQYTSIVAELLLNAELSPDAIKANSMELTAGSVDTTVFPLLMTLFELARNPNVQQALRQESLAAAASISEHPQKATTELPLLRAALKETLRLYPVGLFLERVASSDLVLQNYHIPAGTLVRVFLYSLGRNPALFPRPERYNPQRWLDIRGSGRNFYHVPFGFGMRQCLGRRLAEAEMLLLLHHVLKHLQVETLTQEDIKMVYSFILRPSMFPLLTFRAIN
Source text: as §1, §2, §3, §4, §5, §6, §7

human CYP11B2, sequence (P19099 25-503): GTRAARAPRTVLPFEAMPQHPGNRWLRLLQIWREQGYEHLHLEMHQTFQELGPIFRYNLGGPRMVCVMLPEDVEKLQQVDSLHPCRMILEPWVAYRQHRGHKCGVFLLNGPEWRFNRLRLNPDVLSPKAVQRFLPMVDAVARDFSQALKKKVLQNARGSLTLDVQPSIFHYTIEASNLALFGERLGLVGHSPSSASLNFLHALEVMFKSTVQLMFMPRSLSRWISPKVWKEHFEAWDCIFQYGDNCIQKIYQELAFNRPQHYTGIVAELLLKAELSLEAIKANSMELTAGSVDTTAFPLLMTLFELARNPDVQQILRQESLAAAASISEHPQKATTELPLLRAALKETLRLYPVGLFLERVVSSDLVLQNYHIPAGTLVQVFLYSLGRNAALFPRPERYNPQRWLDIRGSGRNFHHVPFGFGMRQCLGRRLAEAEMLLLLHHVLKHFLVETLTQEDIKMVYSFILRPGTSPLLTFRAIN

FC(F)(F)c1ccc(-c2[nH]ncc2Oc2ccc(Cl)cc2)cc1 [Example 14, 4-(4-Chlorophenoxy)-5-[4-(trifluoromethyl)phenyl]-1H-pyrazole]
EC50 (human CYP11B2): 2030 nM
EC50 (human CYP11B1): 2670 nM

N#Cc1ccc(Oc2cn[nH]c2-c2cccc(O)c2F)cc1 [Example 84, 4-[[3-(2-Fluoro-3-hydroxyphenyl)-1H-pyrazol-4-yl]oxy]benzonitrile]
EC50 (human CYP11B2): 0.4 nM
EC50 (human CYP11B1): 17.3 nM

N#Cc1ccc(Oc2cn[nH]c2-c2cccc(CO)c2)cc1 [Example 49, 4-[[3-[3-(Hydroxymethyl)phenyl]-1H-pyrazol-4-yl]oxy]benzonitrile]
EC50 (human CYP11B2): 13.2 nM
EC50 (human CYP11B1): 85 nM

N#Cc1ccc(Oc2cn[nH]c2-c2ccccc2O)cc1 [Example 78, 4-[[3-(2-Hydroxyphenyl)-1H-pyrazol-4-yl]oxy]benzonitrile]
EC50 (human CYP11B2): 0.3 nM
EC50 (human CYP11B1): 10.7 nM

CC(=O)N1CCC(Oc2cccc(-c3[nH]ncc3Oc3ccc(C#N)cc3)c2)C1 (racemic) [Example 58, (rac)-4-[[3-[3-(1-Acetylpyrrolidin-3-yl)oxyphenyl]-1H-pyrazol-4-yl]oxy]benzonitrile]
EC50 (human CYP11B2): 215 nM
EC50 (human CYP11B1): 1510 nM

Cn1cc(-c2[nH]ncc2Oc2ccc(C#N)cc2)cn1 [Example 67, 4-[[3-(1-Methylpyrazol-4-yl)-1H-pyrazol-4-yl]oxy]benzonitrile]
EC50 (human CYP11B2): 251 nM
EC50 (human CYP11B1): 3270 nM

CS(=O)(=O)c1ccc(-c2[nH]ncc2Oc2ccc(C#N)cc2)cc1 [Example 18, 4-[[5-(4-Methylsulfonylphenyl)-1H-pyrazol-4-yl]oxy]benzonitrile]
EC50 (human CYP11B2): 23.9 nM
EC50 (human CYP11B1): 462 nM

CC(=O)N1CCCC(c2[nH]ncc2Oc2ccc(C#N)cc2)C1 (racemic) [Example 62, (rac)-4-[[3-(1-Acetylpiperidin-3-yl)-1H-pyrazol-4-yl]oxy]benzonitrile]
EC50 (human CYP11B2): 370 nM
EC50 (human CYP11B1): 2280 nM

FC(F)(F)c1ccc(Oc2cn[nH]c2-c2ccccc2Cl)cc1 [Example 23, 5-(2-Chlorophenyl)-4-[4-(trifluoromethyl)phenoxy]-1H-pyrazole]
EC50 (human CYP11B2): 26.8 nM
EC50 (human CYP11B1): 723 nM

N#Cc1ccc(Oc2cn[nH]c2-c2ccccc2Cn2ccc(=O)cc2)cc1 [Example 83, 4-[[3-[2-[(4-Oxopyridin-1-yl)methyl]phenyl]-1H-pyrazol-4-yl]oxy]benzonitrile]
EC50 (human CYP11B2): 321 nM
EC50 (human CYP11B1): 2880 nM

Clc1ccc(Oc2cn[nH]c2-c2ccc(Cl)cc2)cc1 [Example 3, 4-(4-Chlorophenoxy)-3-(4-chlorophenyl)-1H-pyrazole]
EC50 (human CYP11B2): 323 nM
EC50 (human CYP11B1): 1380 nM

Fc1ccccc1-c1[nH]ncc1Oc1ccc(Cl)cc1 [Example 9, 4-(4-Chlorophenoxy)-5-(2-fluorophenyl)-1H-pyrazole]
EC50 (human CYP11B2): 7.9 nM
EC50 (human CYP11B1): 167 nM

COc1ccc(Cl)cc1-c1[nH]ncc1Oc1ccc(Cl)cc1 [Example 10, 3-(5-Chloro-2-methoxyphenyl)-4-(4-chlorophenoxy)-1H-pyrazole]
EC50 (human CYP11B2): 60.8 nM
EC50 (human CYP11B1): 835 nM

FC(F)Oc1ccccc1-c1[nH]ncc1Oc1ccc(Cl)cc1 [Example 8, 4-(4-Chlorophenoxy)-5-[2-(difluoromethoxy)phenyl]-1H-pyrazole]
EC50 (human CYP11B2): 4 nM
EC50 (human CYP11B1): 75.7 nM

N#Cc1ccc(Oc2cn[nH]c2-c2cccc(OCc3ccnc(Cl)c3)c2F)cc1 [Example 86, 4-[[3-[3-[(2-Chloropyridin-4-yl)methoxy]-2-fluorophenyl]-1H-pyrazol-4-yl]oxy]benzonitrile]
EC50 (human CYP11B2): 4.3 nM
EC50 (human CYP11B1): 28 nM

N#Cc1ccc(Oc2cn[nH]c2-c2ccccc2Cl)c(F)c1 [Example 28, 4-[[5-(2-Chlorophenyl)-1H-pyrazol-4-yl]oxy]-3-fluorobenzonitrile]
EC50 (human CYP11B2): 1.5 nM
EC50 (human CYP11B1): 134 nM

CSc1ccc(-c2[nH]ncc2Oc2ccc(Cl)cc2)c(Cl)c1 [Example 17, 5-(2-Chloro-4-methylsulfanylphenyl)-4-(4-chlorophenoxy)-1H-pyrazole]
EC50 (human CYP11B2): 60.8 nM
EC50 (human CYP11B1): 522 nM

N#Cc1ccc(Oc2cn[nH]c2-c2cccc(COc3cccc(F)n3)c2)cc1 [Example 69, 4-[[3-[3-[(6-Fluoropyridin-2-yl)oxymethyl]phenyl]-1H-pyrazol-4-yl]oxy]benzonitrile]
EC50 (human CYP11B2): 16.9 nM
EC50 (human CYP11B1): 47.7 nM

N#Cc1ccc(Oc2cn[nH]c2C2CCCN(C(=O)c3cccnc3)C2)cc1 (racemic) [Example 64, (rac)-4-[[3-[1-(Pyridine-3-carbonyl)piperidin-3-yl]-1H-pyrazol-4-yl]oxy]benzonitrile]
EC50 (human CYP11B2): 405 nM
EC50 (human CYP11B1): 8160 nM

N#Cc1ccc(Oc2cn[nH]c2-c2cccc(Cn3ccc(=O)cc3)c2)cc1 [Example 72, 4-[[3-[3-[(4-Oxopyridin-1-yl)methyl]phenyl]-1H-pyrazol-4-yl]oxy]benzonitrile]
EC50 (human CYP11B2): 1630 nM
EC50 (human CYP11B1): 19300 nM

Cc1cc(COc2cccc(-c3[nH]ncc3Oc3ccc(C#N)cc3)c2)on1 [Example 52, 4-[[3-[3-[(3-Methyl-1,2-oxazol-5-yl)methoxy]phenyl]-1H-pyrazol-4-yl]oxy]benzonitrile]
EC50 (human CYP11B2): 14.8 nM
EC50 (human CYP11B1): 32.3 nM

Clc1ccc(Oc2cn[nH]c2-c2ccccc2Cl)cc1 [Example 6, 4-(4-Chlorophenoxy)-5-(2-chlorophenyl)-1H-pyrazole]
EC50 (human CYP11B2): 2.6 nM
EC50 (human CYP11B1): 51.8 nM

CS(=O)(=O)c1ccc(-c2[nH]ncc2Oc2ccc(C(F)(F)F)cc2)cc1 [Example 16, 5-(4-Methylsulfonylphenyl)-4-[4-(trifluoromethyl)phenoxy]-1H-pyrazole]
EC50 (human CYP11B2): 84.5 nM
EC50 (human CYP11B1): 1970 nM

CC(=O)N1CCN(C(=O)c2cccc(-c3[nH]ncc3Oc3ccc(C#N)cc3)c2)CC1 [Example 44, 4-[[3-[3-(4-Acetylpiperazine-1-carbonyl)phenyl]-1H-pyrazol-4-yl]oxy]benzonitrile]
EC50 (human CYP11B2): 313 nM
EC50 (human CYP11B1): > 30000 nM

Cn1cc(COc2ccccc2-c2[nH]ncc2Oc2ccc(C#N)cc2)cn1 [Example 80, 4-[[3-[2-[(1-Methylpyrazol-4-yl)methoxy]phenyl]-1H-pyrazol-4-yl]oxy]benzonitrile]
EC50 (human CYP11B2): 0.3 nM
EC50 (human CYP11B1): 6.9 nM

N#Cc1ccc(Oc2cn[nH]c2C2CCCN(C(=O)c3ccccn3)C2)cc1 (racemic) [Example 65, (rac)-4-[[3-[1-(Pyridine-2-carbonyl)piperidin-3-yl]-1H-pyrazol-4-yl]oxy]benzonitrile]
EC50 (human CYP11B2): 1410 nM
EC50 (human CYP11B1): 5910 nM

COC(=O)c1cccc(-c2[nH]ncc2Oc2ccc(C#N)cc2F)c1 [Example 38, Methyl 3-[4-(4-cyano-2-fluorophenoxy)-1H-pyrazol-3-yl]benzoate]
EC50 (human CYP11B2): 31.9 nM
EC50 (human CYP11B1): 321 nM

CS(=O)(=O)c1ccc(-c2[nH]ncc2Oc2ccc(C#N)cc2)c(Cl)c1 [Example 43, 4-[[5-(2-Chloro-4-methylsulfonylphenyl)-1H-pyrazol-4-yl]oxy]benzonitrile]
EC50 (human CYP11B2): 41.6 nM
EC50 (human CYP11B1): 558 nM

N#Cc1ccc(Oc2cn[nH]c2-c2cccc(COc3cccnc3)c2)cc1 [Example 70, 4-[[3-[3-(Pyridin-3-yloxymethyl)phenyl]-1H-pyrazol-4-yl]oxy]benzonitrile]
EC50 (human CYP11B2): 10.6 nM
EC50 (human CYP11B1): 38.3 nM

N#Cc1ccc(Oc2cn[nH]c2-c2cccc(Cl)c2F)cc1 [Example 30, 4-[[5-(3-Chloro-2-fluorophenyl)-1H-pyrazol-4-yl]oxy]benzonitrile]
EC50 (human CYP11B2): 8 nM
EC50 (human CYP11B1): 191 nM

N#Cc1ccc(Oc2cn[nH]c2-c2ccccc2Cl)cc1 [Example 25, 4-[[5-(2-Chlorophenyl)-1H-pyrazol-4-yl]oxy]benzonitrile]
EC50 (human CYP11B2): 0.2 nM
EC50 (human CYP11B1): 18.5 nM

CS(=O)(=O)c1ccc(-c2[nH]ncc2Oc2ccc(Cl)cc2)c(Cl)c1 [Example 42, 5-(2-Chloro-4-methylsulfonylphenyl)-4-(4-chlorophenoxy)-1H-pyrazole]
EC50 (human CYP11B2): 29.8 nM
EC50 (human CYP11B1): 345 nM

Fc1c(Cl)cccc1-c1[nH]ncc1Oc1ccc(Cl)cc1 [Example 31, 5-(3-Chloro-2-fluorophenyl)-4-(4-chlorophenoxy)-1H-pyrazole]
EC50 (human CYP11B2): 191 nM
EC50 (human CYP11B1): 1820 nM

N#Cc1ccc(Oc2cn[nH]c2-c2ccccc2C(=O)O)cc1 [Example 40, 2-[4-(4-Cyanophenoxy)-1H-pyrazol-3-yl]benzoic acid]
EC50 (human CYP11B2): 1500 nM
EC50 (human CYP11B1): > 30000 nM
